Laboratory results as given in patent publication US9228020B2, “Compositions and methods for diagnosing and treating cancer” (OncoMed Pharmaceuticals, Inc., priority 2006, dated 2016).
Entries after “also recorded” stand apart in the source; their conditions may differ.

How the values were obtained:
[1] = tested on: UM-C4 colon tumor cells; assay: UM-C4 xenograft, combination with fluorouracil; type: in vivo, NOD/SCID mice; conditions: day 46
Protocol: In certain embodiments, anti-DLL4 antibodies were analyzed in combination with chemotherapy for the ability to reduce growth of UM-C4 colon tumor cells in vivo. Dissociated UM-C4 cells (10,000 per animal) were injected subcutaneously into the right flank region of 6-8 week old NOD/SCID mice. The day after tumor cell injection, animals were injected intraperitoneal (i.p.) with 10 mg/kg murine 21M18 anti-DLL4 antibodies or PBS two times per week for the duration of the experiment with or without concurrent treatment with the anti-metabolite chemotherapy agent fluorouracil (5-FU) administered one time per week. Tumor growth was monitored weekly until growth was detected, after which point tumor growth was measured twice weekly for a total of 8 weeks.

[2] = biological target: human DLL4 (Homo sapiens, UniProt Q9NR61); assay: OMP-C11 tumor cell colonies overlaid with 3T3-DLL4 cells, HES1:ATOH1 expression; type: cell-based; parameters: expressed in transfected cells; host or cells: 3T3 cells; conditions: 5 μM
human DLL4, sequence (Q9NR61 27-685): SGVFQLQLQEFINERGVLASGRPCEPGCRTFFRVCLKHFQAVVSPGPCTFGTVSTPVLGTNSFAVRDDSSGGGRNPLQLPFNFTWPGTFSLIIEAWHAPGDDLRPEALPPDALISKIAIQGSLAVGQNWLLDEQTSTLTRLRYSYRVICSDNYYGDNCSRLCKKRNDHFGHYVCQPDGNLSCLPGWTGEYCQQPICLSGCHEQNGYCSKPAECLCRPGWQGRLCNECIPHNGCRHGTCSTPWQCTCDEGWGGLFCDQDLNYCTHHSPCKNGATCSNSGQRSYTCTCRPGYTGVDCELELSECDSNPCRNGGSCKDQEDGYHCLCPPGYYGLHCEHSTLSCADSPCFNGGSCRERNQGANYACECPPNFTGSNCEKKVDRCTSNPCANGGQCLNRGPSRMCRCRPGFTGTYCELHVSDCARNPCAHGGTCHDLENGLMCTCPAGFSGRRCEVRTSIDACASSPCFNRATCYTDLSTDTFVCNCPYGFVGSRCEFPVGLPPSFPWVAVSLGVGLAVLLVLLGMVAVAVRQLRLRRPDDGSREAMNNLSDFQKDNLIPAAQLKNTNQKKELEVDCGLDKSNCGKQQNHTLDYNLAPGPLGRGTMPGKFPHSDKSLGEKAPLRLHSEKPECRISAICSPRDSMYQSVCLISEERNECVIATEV
Protocol: In some embodiments, mouse lineage-depleted OMP-C11 tumor cell colonies were established using culture conditions known to maintain tumorigenic cells in vitro. These tumor cell colonies were overlaid with 3T3 cells without (3T3) or including human DLL4 (DLL4) overexpressed on the cell surface in the presence or absence of 10 μg/mL murine 21M18 or 5 μM gamma-secretase inhibitor (GSI; i.e. DBZ). A no overlay control was also included.

[3] = tested on: OMP-C8 tumor cells; assay: OMP-C8 colon tumor xenograft growth prevention, combination with Irinotecan; type: in vivo, NOD/SCID mice; conditions: 21M18 10 mg/kg twice per week; Irinotecan 7.5 mg/kg weekly; n=10 per group
Protocol: In certain embodiments, anti-DLL4 antibodies were tested in combination with the chemotherapeutic Irinotecan. In some embodiments, dissociated OMP-C8 tumor cells (10,000 per animal) were injected subcutaneously into the right flank region of 6-8 week old NOD/SCID mice. The day after tumor cell injection, animals were injected intraperitoneal (i.p.) with 10 mg/kg murine 21M18 anti-DLL4 antibodies or control antibody two times per week for the duration of the experiment with or without concurrent treatment with the chemotherapy agent Irinotecan administered one time per week at a dosage of 7.5 mg/kg. Tumor growth was monitored weekly until growth was detected, after which point tumor growth was measured twice weekly. […] In certain embodiments, humanized H7L2 21M18 anti-DLL4 antibodies were tested in combination with Irinotecan. In some embodiments, dissociated C8 tumor cells (10,000 per animal) were injected subcutaneously into the right flank region of 6-8 week old NOD/SCID mice. […] Tumor growth was monitored weekly until growth was detected, after which point tumor growth was measured twice weekly.

[4] = tested on: C8 cells; assay: Established C8 colon tumors, combination with Irinotecan; type: in vivo, NOD/SCID mice; conditions: treatment from approximately 60 mm^3; 21M18 10 mg/kg two times per week; Irinotecan 7.5 mg/kg one time per week
Protocol: In some embodiments, combination anti-DLL4 murine 21M18 and Irinotecan treatment was used to treat established colon tumors. Dissociated C8 cells (10,000 per animal) were injected subcutaneously into the right flank region of 6-8 week old NOD/SCID mice. When the injected cells produced tumors of approximately 60 mm^3, treatment was commenced. Animals were injected intraperitoneal (i.p.) with 10 mg/kg murine 21M18 anti-DLL4 antibodies or a control two times per week for the duration of the experiment with or without concurrent treatment with the chemotherapy agent Irinotecan administered one time per week at a dosage of 7.5 mg/kg.

## O=c1[nH]cc(F)c(=O)[nH]1 [5-FU, fluorouracil, reference compound]
[1]
  tumor size compared to control: reduced tumor size

## C[C@H](NC(=O)Cc1cc(F)cc(F)c1)C(=O)N[C@@H]1C(=O)N(C)c2ccccc2-c2ccccc21 [GSI, reference compound]
[2]
  DLL4-induced Notch target gene changes (ratio of HES1:ATOH1): inhibited DLL4-induced Notch target gene changes

## CCc1c2c(nc3ccc(OC(=O)N4CCC(N5CCCCC5)CC4)cc13)-c1cc3c(c(=O)n1C2)COC(=O)[C@]3(O)CC [Irinotecan]
[3]
  tumor growth after treatment cessation on day 56: tumor growth continued or accelerated in most animals; also recorded: growth continued after cessation of treatment on day 56 (* arrow) in all but two treated animals
[4]
  growth of established colon tumors: reduced tumor volume
